Laboratory results taken from article PMC2900413 (Biochemical pharmacology, 2010).
“Also recorded” adds a separate entry of the source.

Experiments:
A2AAR [1] = conditions: read-out: Ki, radioligand binding; reported values; ref [1], [27], [28], [29]; cited from earlier work
A2B AR = biological target: T1, A2B AR (Homo sapiens, UniProt P29275); experiment: Cyclic AMP accumulation assay, CHO cells expressing the A2B AR; assay type: cell-based; conditions: at 10 μM
T1 sequence (P29275 1-332): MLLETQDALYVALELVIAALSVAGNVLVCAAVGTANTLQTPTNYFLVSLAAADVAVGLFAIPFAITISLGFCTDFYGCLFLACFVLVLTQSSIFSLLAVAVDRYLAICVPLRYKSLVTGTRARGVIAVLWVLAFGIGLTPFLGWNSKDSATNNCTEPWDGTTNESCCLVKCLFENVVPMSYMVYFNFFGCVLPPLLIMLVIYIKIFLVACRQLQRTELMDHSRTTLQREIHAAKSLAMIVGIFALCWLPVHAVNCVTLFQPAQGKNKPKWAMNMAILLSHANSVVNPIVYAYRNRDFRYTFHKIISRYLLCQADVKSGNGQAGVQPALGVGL

A1 AR = biological target: T2, A1 AR (Homo sapiens, UniProt P30542); experiment: Radioligand membrane binding assay at the A1 AR with [3H]R-PIA
T2 sequence (P30542 1-326): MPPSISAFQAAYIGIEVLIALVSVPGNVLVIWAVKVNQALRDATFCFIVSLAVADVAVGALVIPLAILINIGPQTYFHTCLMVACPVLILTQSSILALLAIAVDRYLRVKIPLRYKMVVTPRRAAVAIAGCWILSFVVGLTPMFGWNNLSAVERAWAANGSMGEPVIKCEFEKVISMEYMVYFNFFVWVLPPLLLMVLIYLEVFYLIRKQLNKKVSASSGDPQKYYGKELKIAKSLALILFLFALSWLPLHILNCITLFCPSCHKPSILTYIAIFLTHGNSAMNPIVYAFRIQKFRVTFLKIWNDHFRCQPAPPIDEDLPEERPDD

A2AAR [2] = biological target: A2AAR (Homo sapiens, UniProt P29274); experiment: Cyclic AMP accumulation assay, CHO cells expressing the A2AAR; conditions: CGS21680-induced cyclic AMP accumulation in CHO cells expressing the A2AAR
Sequence of A2AAR (Homo sapiens, UniProt P29274) (P29274 whole entry): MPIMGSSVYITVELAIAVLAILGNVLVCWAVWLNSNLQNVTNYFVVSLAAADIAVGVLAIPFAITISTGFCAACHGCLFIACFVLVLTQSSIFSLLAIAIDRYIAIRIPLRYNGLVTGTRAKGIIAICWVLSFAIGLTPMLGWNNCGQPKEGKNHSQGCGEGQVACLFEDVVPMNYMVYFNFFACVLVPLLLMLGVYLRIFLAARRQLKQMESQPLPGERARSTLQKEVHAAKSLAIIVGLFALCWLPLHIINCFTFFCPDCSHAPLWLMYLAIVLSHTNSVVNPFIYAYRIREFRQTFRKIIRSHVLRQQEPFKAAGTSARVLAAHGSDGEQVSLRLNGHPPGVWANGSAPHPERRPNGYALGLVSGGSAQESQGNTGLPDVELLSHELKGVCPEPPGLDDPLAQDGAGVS

A3 AR = biological target: T3, A3 AR (Homo sapiens, UniProt P0DMS8); experiment: Radioligand membrane binding assay at the A3 AR with [125I]AB-MECA
T3 sequence (P0DMS8 1-318): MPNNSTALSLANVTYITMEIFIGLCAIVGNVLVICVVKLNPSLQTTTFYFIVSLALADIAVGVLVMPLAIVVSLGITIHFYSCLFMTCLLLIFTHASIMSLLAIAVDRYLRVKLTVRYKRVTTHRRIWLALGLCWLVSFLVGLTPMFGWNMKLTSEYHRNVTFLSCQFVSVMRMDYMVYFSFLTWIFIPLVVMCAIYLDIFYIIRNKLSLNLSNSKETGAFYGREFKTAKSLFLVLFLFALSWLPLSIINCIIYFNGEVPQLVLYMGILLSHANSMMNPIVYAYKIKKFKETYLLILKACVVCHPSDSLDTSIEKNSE

Structure (SMILES)	Ki (A2AAR [1])	effect on NECA-induced cyclic AMP accumulation (A2B AR)	effect on A1 AR in binding (A1 AR; at 10 μM)	inhibition at 10 µM (A1 AR; read-out: inhibition of radioligand binding at A1 AR)	functional activity in cyclic AMP assay at the A2AAR (A2AAR [2])	effect on A3 AR in binding (A3 AR; at 10 μM)	inhibition at 10 µM (A3 AR; read-out: inhibition of radioligand binding at A3 AR)
OC[C@H]1O[C@@H](n2cnc3c(NC4CCCC4)ncnc32)[C@H](O)[C@@H]1O [CPA]	794 nM	–	–	–	–	–	–
N=c1ccc2c(-c3ccc(C(=O)NCCNC(=O)COc4ccc(CCCn5ncc6c5nc(N)n5nc(-c7ccco7)nc65)cc4)cc3C(=O)O)c3ccc(N)c(S(=O)(=O)O)c3oc-2c1S(=O)(=O)O [MRS5346, 5-((2-(2-(4-(3-(5-amino-2-(furan-2-yl)-7H-pyrazolo[4,3-e][1,2,4]triazolo[1,5-c]pyrimidin-7-yl)propyl)phenoxy)acetamido)-ethyl)-carbamoyl)-2-(6-amino-3-iminio-4,5-disulfonato-3H-xanthen-9-yl)benzoate]	–	did not show any effect; also recorded: did not inhibit	did not show any effect	4.6 ± 1.9%	antagonist; also recorded: inhibited cyclic AMP accumulation	did not show any effect	3.8 ± 2.1%
